# Measured values: ChEMBL document CHEMBL6153072, “Metabolically Stable Adenylation Inhibitors of Biotin Protein Ligase as Antibacterial Agents” (J Med Chem, 2025)
# Tested on: Staphylococcus aureus
# Assay: Antimicrobial activity against methicillin-sensitive Staphylococcus aureus […] assessed as inhibition of microbial growth incubated for 14 days in biotin-deficient GAST medium by broth microdilution assay
# Format: functional
# Conditions: 336 h, time 14 day
row,SMILES,MIC50
1,Nc1ncnc2c1ncn2[C@@H]1O[C@H](CNS(=O)(=O)NC(=O)NCCCC[C@@H]2SC[C@@H]3NC(=O)N[C@@H]32)[C@@H](O)[C@H]1O,0.25 µM
2,Nc1cccc2c1ncn2CCCCNS(=O)(=O)NC(=O)CCCC[C@@H]1SC[C@@H]2NC(=O)N[C@@H]21,> 30 µM
3,C[C@@H]1NC(=O)N[C@@H]1CCCCCC(=O)NS(=O)(=O)NC[C@H]1O[C@@H](n2cnc3c(N)cccc32)[C@H](O)[C@@H]1O,> 30 µM
4,Nc1cccc2c1ncn2[C@@H]1O[C@H](CNS(=O)(=O)NC(=O)CCCC[C@@H]2SC[C@@H]3NC(=O)N[C@@H]32)[C@@H](F)[C@H]1O,> 30 µM

# Molecular target: T1, Biotin--[acetyl-CoA-carboxylase] ligase (Mycobacterium tuberculosis (strain ATCC 25618 / H37Rv), UniProt I6YFP0)
# T1 sequence (I6YFP0 whole entry): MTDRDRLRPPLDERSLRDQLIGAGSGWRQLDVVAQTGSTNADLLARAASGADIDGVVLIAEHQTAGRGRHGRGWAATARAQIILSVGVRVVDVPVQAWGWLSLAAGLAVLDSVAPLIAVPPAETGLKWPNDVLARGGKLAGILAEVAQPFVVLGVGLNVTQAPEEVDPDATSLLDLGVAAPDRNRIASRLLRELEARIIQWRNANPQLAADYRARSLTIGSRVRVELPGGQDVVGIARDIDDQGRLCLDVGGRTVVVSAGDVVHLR
# Assay: Binding affinity to Mycobacterium tuberculosis BPL assessed as dissociation constant by isothermal titration calorimetry
# Conditions: not given
row,SMILES,Kd
1,Nc1ncnc2c1ncn2[C@@H]1O[C@H](CNS(=O)(=O)NC(=O)NCCCC[C@@H]2SC[C@@H]3NC(=O)N[C@@H]32)[C@@H](O)[C@H]1O,55 nM
2,Nc1cccc2c1ncn2CCCCNS(=O)(=O)NC(=O)CCCC[C@@H]1SC[C@@H]2NC(=O)N[C@@H]21,220 nM
3,C[C@@H]1NC(=O)N[C@@H]1CCCCCC(=O)NS(=O)(=O)NC[C@H]1O[C@@H](n2cnc3c(N)cccc32)[C@H](O)[C@@H]1O,19 nM
4,Nc1cccc2c1ncn2[C@@H]1O[C@H](CNS(=O)(=O)NC(=O)CCCC[C@@H]2SC[C@@H]3NC(=O)N[C@@H]32)[C@@H](F)[C@H]1O,228 nM

# Tested on: Staphylococcus aureus
# Assay: Antimicrobial activity against methicillin-resistant Staphylococcus aureus FPR3757 assessed as inhibition of microbial growth incubated for 14 days in biotin-deficient GAST medium by broth microdilution assay
# Format: functional
# Conditions: FPR3757, 336 h, time 14 day
row,SMILES,MIC50
1,Nc1ncnc2c1ncn2[C@@H]1O[C@H](CNS(=O)(=O)NC(=O)NCCCC[C@@H]2SC[C@@H]3NC(=O)N[C@@H]32)[C@@H](O)[C@H]1O,0.12 µM
2,Nc1cccc2c1ncn2CCCCNS(=O)(=O)NC(=O)CCCC[C@@H]1SC[C@@H]2NC(=O)N[C@@H]21,> 30 µM
3,C[C@@H]1NC(=O)N[C@@H]1CCCCCC(=O)NS(=O)(=O)NC[C@H]1O[C@@H](n2cnc3c(N)cccc32)[C@H](O)[C@@H]1O,> 30 µM
4,Nc1cccc2c1ncn2[C@@H]1O[C@H](CNS(=O)(=O)NC(=O)CCCC[C@@H]2SC[C@@H]3NC(=O)N[C@@H]32)[C@@H](F)[C@H]1O,> 30 µM

# Molecular target: T2, Biotin--[acetyl-CoA-carboxylase] ligase (Mycobacterium tuberculosis (strain ATCC 25618 / H37Rv)) (UniProt I6YFP0)
# T2 sequence (whole entry): T1 sequence (I6YFP0 whole entry)
# Assay: Binding affinity to Mycobacterium tuberculosis BPL assessed as change in entropy by isothermal titration calorimetry
# Conditions: not given
row,SMILES,TdeltaS
1,Nc1ncnc2c1ncn2[C@@H]1O[C@H](CNS(=O)(=O)NC(=O)NCCCC[C@@H]2SC[C@@H]3NC(=O)N[C@@H]32)[C@@H](O)[C@H]1O,1.6 kcal/mol
2,Nc1cccc2c1ncn2CCCCNS(=O)(=O)NC(=O)CCCC[C@@H]1SC[C@@H]2NC(=O)N[C@@H]21,3.2 kcal/mol
3,C[C@@H]1NC(=O)N[C@@H]1CCCCCC(=O)NS(=O)(=O)NC[C@H]1O[C@@H](n2cnc3c(N)cccc32)[C@H](O)[C@@H]1O,3 kcal/mol
4,Nc1cccc2c1ncn2[C@@H]1O[C@H](CNS(=O)(=O)NC(=O)CCCC[C@@H]2SC[C@@H]3NC(=O)N[C@@H]32)[C@@H](F)[C@H]1O,4.8 kcal/mol

# Molecular target: T2, Biotin--[acetyl-CoA-carboxylase] ligase (Mycobacterium tuberculosis (strain ATCC 25618 / H37Rv))
# Assay: Binding affinity to Mycobacterium tuberculosis BPL assessed as change in gibbs free energy by isothermal titration calorimetry
# Conditions: not given
row,SMILES,deltaG
1,Nc1ncnc2c1ncn2[C@@H]1O[C@H](CNS(=O)(=O)NC(=O)NCCCC[C@@H]2SC[C@@H]3NC(=O)N[C@@H]32)[C@@H](O)[C@H]1O,-9.9 kcal/mol
2,Nc1cccc2c1ncn2CCCCNS(=O)(=O)NC(=O)CCCC[C@@H]1SC[C@@H]2NC(=O)N[C@@H]21,-9.1 kcal/mol
3,C[C@@H]1NC(=O)N[C@@H]1CCCCCC(=O)NS(=O)(=O)NC[C@H]1O[C@@H](n2cnc3c(N)cccc32)[C@H](O)[C@@H]1O,-10.6 kcal/mol
4,Nc1cccc2c1ncn2[C@@H]1O[C@H](CNS(=O)(=O)NC(=O)CCCC[C@@H]2SC[C@@H]3NC(=O)N[C@@H]32)[C@@H](F)[C@H]1O,-9.1 kcal/mol

# Tested on: Mycobacterium tuberculosis
# Assay: Antimicrobial activity against wild type Mycobacterium tuberculosis H37Rv assessed as inhibition of microbial growth incubated for 14 days in biotin-deficient GAST medium by broth microdilution assay
# Format: functional
# Conditions: 336 h, time 14 day
row,SMILES,MIC50
1,Nc1ncnc2c1ncn2[C@@H]1O[C@H](CNS(=O)(=O)NC(=O)NCCCC[C@@H]2SC[C@@H]3NC(=O)N[C@@H]32)[C@@H](O)[C@H]1O,> 100 µM
2,Nc1cccc2c1ncn2CCCCNS(=O)(=O)NC(=O)CCCC[C@@H]1SC[C@@H]2NC(=O)N[C@@H]21,21 µM
3,C[C@@H]1NC(=O)N[C@@H]1CCCCCC(=O)NS(=O)(=O)NC[C@H]1O[C@@H](n2cnc3c(N)cccc32)[C@H](O)[C@@H]1O,> 100 µM
4,Nc1cccc2c1ncn2[C@@H]1O[C@H](CNS(=O)(=O)NC(=O)CCCC[C@@H]2SC[C@@H]3NC(=O)N[C@@H]32)[C@@H](F)[C@H]1O,> 100 µM

# Molecular target: T2, Biotin--[acetyl-CoA-carboxylase] ligase (Mycobacterium tuberculosis (strain ATCC 25618 / H37Rv))
# Assay: Binding affinity to Mycobacterium tuberculosis BPL assessed as change in enthalpy by isothermal titration calorimetry
# Conditions: not given
row,SMILES,deltaH
1,Nc1ncnc2c1ncn2[C@@H]1O[C@H](CNS(=O)(=O)NC(=O)NCCCC[C@@H]2SC[C@@H]3NC(=O)N[C@@H]32)[C@@H](O)[C@H]1O,-11.5 kcal/mol
2,Nc1cccc2c1ncn2CCCCNS(=O)(=O)NC(=O)CCCC[C@@H]1SC[C@@H]2NC(=O)N[C@@H]21,-12.3 kcal/mol
3,C[C@@H]1NC(=O)N[C@@H]1CCCCCC(=O)NS(=O)(=O)NC[C@H]1O[C@@H](n2cnc3c(N)cccc32)[C@H](O)[C@@H]1O,-13.6 kcal/mol
4,Nc1cccc2c1ncn2[C@@H]1O[C@H](CNS(=O)(=O)NC(=O)CCCC[C@@H]2SC[C@@H]3NC(=O)N[C@@H]32)[C@@H](F)[C@H]1O,-13.9 kcal/mol
